In the experiment the target is T1, recombinant human liver GK (Homo sapiens, UniProt P35557).
T1 construct: made in house; host or cells: E. coli
T1 sequence (P35557 1-466 isoform P35557-2): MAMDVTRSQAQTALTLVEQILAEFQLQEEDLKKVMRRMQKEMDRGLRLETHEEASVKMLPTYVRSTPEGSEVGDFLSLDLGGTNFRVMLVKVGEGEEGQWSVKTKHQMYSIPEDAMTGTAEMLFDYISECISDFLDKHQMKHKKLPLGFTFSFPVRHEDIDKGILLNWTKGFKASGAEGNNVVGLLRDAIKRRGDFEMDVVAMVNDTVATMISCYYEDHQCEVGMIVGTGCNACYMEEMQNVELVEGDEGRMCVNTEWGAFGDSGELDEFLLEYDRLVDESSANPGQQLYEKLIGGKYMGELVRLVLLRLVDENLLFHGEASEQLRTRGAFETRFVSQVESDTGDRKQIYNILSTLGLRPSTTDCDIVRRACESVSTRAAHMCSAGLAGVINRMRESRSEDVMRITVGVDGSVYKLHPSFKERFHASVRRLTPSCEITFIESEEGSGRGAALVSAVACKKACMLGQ
The experiment can be described thus: Glucokinase (GK) activation assay: Thio-NADH formation coupled with G6PDH, absorbance at 405 nm. It counts as biochemical. As to conditions: final glucose concentration 2.5 mM, 30° C.; for Emax: OD level of DMSO control set as 100%. The source says:
The glucokinase activity may be determined not by directly measuring glucose-6-phosphate but by measuring the level of Thio-NADH, which is produced when a reporter enzyme, glucose-6-phosphate dehydrogenase produces phosphogluconolactone from glucose-6-phosphate, and based on the level, the degree of glucokinase activity of the compound tested may be determined.
In this assay, used was a recombinant human liver GK, which was expressed by E. coli as a FLAG fusion protein therein and was purified by […] M2 AFFINITY GEL (Sigma).
Using a 96-well plate, the assay was carried out at 30° C. 69 μl of an assay buffer (25 mM Hepes Buffer/pH=7.2, 2 mM MgCl2, 1 mM ATP, 0.5 mM TNAD, 1 mM dithiothreitol) was put into the plate, and 1 μl of a DMSO solution of the compound or DMSO alone as a control was added thereto. Next, 20 μl of an enzyme mixture (FLAG-GK, 20 U/ml G6PDH) cooled in ice was added to it, and 10 μl of a substrate, 25 mM glucose was added to it, and the reaction was initiated (final glucose concentration=2.5 mM).
After the start of the reaction, the increase in the absorbance at 405 nm was measured for 10 minutes at intervals of 30 seconds, and the increase for the first 5 minutes was used for evaluating the compound tested. FLAG-GK was added so that the absorbance increase after 5 minutes in the presence of 1% DMSO could be from 0.05 to 1.0.
The OD level of the DMSO control was set as 100%; and the OD level of the test compound at different concentrations was determined. From the OD level at each concentration, Emax (%) and EC50 (μM) were computed and used as the index of the GK-activating potency of the compound.

As to `CC(=O)c1ccccc1Oc1cc2nc(-c3ccccn3)[nH]c2cc1Oc1ccc(C(=O)N(C)C)cc1` [Example 26, 5-(2-Acetyl-phenoxy)-6-(4-dimethylcarbamoyl-phenoxy)-2-pyridin-2-yl-1H-benzimidazole], the Emax was found to be 768% and the EC50 was 2300 nM.

For the molecule `COc1ccccc1Oc1cc(Oc2cccnc2)cc2[nH]c(-c3ccccn3)nc12` [Example 67, 4-(2-Methoxy-phenoxy)-2-pyridin-2-yl-6-(pyridin-3-yloxy)-1H-benzimidazole], the Emax stood at 832% and the EC50 amounted to 1400 nM.

(Values after patent publication US7728025B2, “2-heteroaryl-substituted benzimidazole derivative” (Banyu Pharmaceutical Co., Ltd., priority 2003, dated 2010).)
